# Where a name gives a salt, the structure may show the parent alone.
# Target: T1, human p38 kinase alpha (Homo sapiens, UniProt Q16539)
# T1 construct: The coding region of the human p38a cDNA was obtained by PCR-amplification from RNA isolated from the human monocyte cell line THP.1; made in house; host or cells: E. coli DH10B
# Assay: p38 kinase in vitro assay (PHAS-I / 32P-ATP format or EGFRP / 33P-ATP format)
# Assay type: biochemical
# Conditions: activated human p38 kinase alpha, 50 μM unlabeled ATP; two assay formats, table does not say which
# Procedure: The ability of compounds to inhibit human p38 kinase alpha was evaluated using two in vitro assay methods. In the first method, activated human p38 kinase alpha phosphorylates a biotinylated substrate, PHAS-I (phosphorylated heat and acid stable protein-insulin inducible), in the presence of gamma ^32P-ATP (^32P-ATP). PHAS-I was biotinylated prior to the assay and provides a means of capturing the substrate, which is phosphorylated during the assay. p38 Kinase was activated by MKK6. Compounds were tested in 10 fold serial dilutions over the range of 100 μM to 0.001 μM using 1% DMSO. Each concentration of inhibitor was tested in triplicate.
# All reactions were carried out in 96 well polypropylene plates. Each reaction well contained 25 mM HEPES pH 7.5, 10 mM magnesium acetate and 50 μM unlabeled ATP. Activation of p38 was required to achieve sufficient signal in the assay. Biotinylated PHAS-1 was used at 1-2 μg per 50 μl reaction volume, with a final concentration of 1.5 μM. Activated human p38 kinase alpha was used at 1 μg per 50 μl reaction volume representing a final concentration of 0.3 μM. Gamma ^32P-ATP was used to follow the phosphorylation of PHAS-1. ^32P-ATP has a specific activity of 3000 Ci/mmol and was used at 1.2 μCi per 50 μl reaction volume. The reaction proceeded either for one hour or overnight at 30° C.
# Following incubation, 20 μl of reaction mixture was transferred to a high capacity streptavidin coated filter plate (SAM-streptavidin-matrix, Promega) prewetted with phosphate buffered saline. The transferred reaction mix was allowed to contact the streptavidin membrane of the Promega plate for 1-2 minutes. Following capture of biotinylated PHAS-1 with ^32P incorporated, each well was washed to remove unincorporated ^32P-ATP three times with 2M NaCl, three washes of 2M NaCl with 1% phosphoric, three washes of distilled water and finally a single wash of 95% ethanol. Filter plates were air-dried and 20 μl of scintillant was added. The plates were sealed and counted.
# A second assay format was also employed that is based on p38 kinase alpha induced phosphorylation of EGFRP (epidermal growth factor receptor peptide, a 21 mer) in the presence ^33P-ATP. Compounds were tested in 10 fold serial dilutions over the range of 100 μM to 0.001 μM in 1% DMSO. Each concentration of inhibitor was tested in triplicate. Compounds were evaluated in 50 μl reaction volumes in the presence of 25 mM Hepes pH 7.5, 10 mM magnesium acetate, 4% glycerol, 0.4% bovine serum albumin, 0.4 mM DTT, 50 μM unlabeled ATP, 25 μg EGFRP (200 μM), and 0.05 μCi ^33P-ATP. Reactions were initiated by addition of 0.09 μg of activated, purified human GST-p38 kinase alpha. Activation was carried out using GST-MKK6 (5:1, p38:MKK6) for one hour at 30° C. in the presence of 50 μM ATP. Following incubation for 60 minutes at room temperature, the reaction was stopped by addition of 150 μl of AG 1×8 resin in 900 mM sodium formate buffer, pH 3.0 (1 volume resin to 2 volumes buffer). The mixture was mixed three times with pipetting and the resin was allowed to settle. A total of 50 μl of clarified solution head volume was transferred from the reaction wells to Microlite-2 plates. 150 μl of Microscint 40 was then added to each well of the Microlite plate, and the plate was sealed, mixed, and counted.
# The above protocol assays were used to determine the IC50 values for compounds in Examples 1-71 above.
# T1 sequence (Q16539 whole entry): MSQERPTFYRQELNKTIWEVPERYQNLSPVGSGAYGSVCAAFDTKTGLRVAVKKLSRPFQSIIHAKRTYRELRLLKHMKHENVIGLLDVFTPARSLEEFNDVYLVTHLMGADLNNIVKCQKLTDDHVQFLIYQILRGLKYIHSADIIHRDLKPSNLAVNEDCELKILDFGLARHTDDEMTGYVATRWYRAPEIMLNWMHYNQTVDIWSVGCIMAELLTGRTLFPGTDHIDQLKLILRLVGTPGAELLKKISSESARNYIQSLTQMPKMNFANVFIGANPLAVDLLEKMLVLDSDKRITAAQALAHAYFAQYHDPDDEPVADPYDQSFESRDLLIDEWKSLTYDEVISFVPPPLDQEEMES
compound,measurement,value
"CC(C)c1nnc2ccc([C@@H]3C[C@@H]3c3ccc(F)cc3F)cn12 (racemic) [Example 3, Racemic 6-[2-(2,4-difluorophenyl)cyclopropyl]-3-isopropyl[1,2,4]triazolo[4,3-a]pyridine]",IC50,16900 nM
"COC(=O)c1ccc(C)c(-c2nnc3n2CC(CCc2ccc(F)cc2F)CC3)c1 (racemic) [Example 18, racemic methyl 3-{6-[2-(2,4-difluorophenyl)ethyl]-5,6,7,8-tetrahydro[1,2,4]triazolo[4,3-a]pyridin-3-yl}-4-methylbenzoate]",IC50,107 nM
"Cc1ccc(C(=O)O)cc1-c1nnc2n1CC(CCc1ccc(F)cc1F)CC2 (racemic) [Example 19, racemic 3-{6-[2-(2,4-difluorophenyl)ethyl]-5,6,7,8-tetrahydro[1,2,4]triazolo[4,3-a]pyridin-3-yl}-4-methylbenzoic acid]",IC50,7550 nM
"Cc1ccc(C(N)=O)cc1-c1nnc2n1CC(CCc1ccc(F)cc1F)CC2 (racemic) [Example 20, racemic 3-{6-[2-(2,4-difluorophenyl)ethyl]-5,6,7,8-tetrahydro[1,2,4]triazolo[4,3-a]pyridin-3-yl}-4-methylbenzamide]",IC50,1270 nM
"OCC(O)c1ccc(-c2nnc3ccc(Sc4ccc(F)cc4F)cn23)cc1 (racemic) [Example 31, racemic-1-(4-{6-[(2,4-difluorophenyl)thio][1,2,4]triazolo[4,3-a]pyridin-3-yl}phenyl)ethane-1,2-diol hydrochloride]",IC50,5.3 nM
"CC(C)c1nnc2ccc(Cc3ccc(F)cc3F)cn12 [8 (step 1), 6-(2,4-difluorobenzyl)-3-isopropyl[1,2,4]triazolo[4,3-a]pyridine]",IC50,26.1 nM
"CC(C)(C)c1nnc2ccc(C(O)c3ccc(F)cc3F)cn12 (centres unmarked) [15 (step 1), (3-tert-butyl[1,2,4]triazolo[4,3-a]pyridin-6-yl)(2,4-difluorophenyl)methanol]",IC50,319 nM
"C=CCC(C)(C)c1nnc2ccc(Sc3ccc(F)cc3F)cn12 [33 (step 2), 6-[(2,4-difluorophenyl)thio]-3-(1,1-dimethylbut-3-enyl)[1,2,4]triazolo[4,3-a]pyridine hydrochloride]",IC50,16.3 nM
"CC1(C)OCC(CC(C)(C)c2nnc3ccc(Sc4ccc(F)cc4F)cn23)O1 (centres unmarked) [33 (step 3), 6-[(2,4-difluorophenyl)thio]-3-[2-(2,2-dimethyl-1,3-dioxolan-4-yl)-1,1-dimethylethyl][1,2,4]triazolo[4,3-a]pyridine hydrochloride]",IC50,698 nM
"CC(C)c1nnc2ccc(Sc3ccc(F)cc3F)cn12 [34 (step 1), 6-[(2,4-difluorophenyl)thio]-3-isopropyl[1,2,4]triazolo[4,3-a]pyridine hydrochloride]",IC50,79.3 nM
"COC(=O)c1ccc(C)c(-c2nnc3ccc(Br)cn23)c1 [41 (step 2), methyl 3-(6-bromo[1,2,4]triazolo[4,3-a]pyridin-3-yl)-4-methylbenzoate]",IC50,12900 nM
"COC(=O)c1ccc(C)c(-c2nnc3ccc(Sc4ccc(F)cc4F)cn23)c1 [41 (step 3), methyl 3-{6-[(2,4-difluorophenyl)thio][1,2,4]triazolo[4,3-a]pyridin-3-yl}-4-methylbenzoate]",IC50,7.8 nM
"Cc1ccc(C(=O)O)cc1-c1nnc2ccc(Sc3ccc(F)cc3F)cn12 [41 (step 4), 3-{6-[(2,4-difluorophenyl)thio][1,2,4]triazolo[4,3-a]pyridin-3-yl}-4-methylbenzoic acid hydrochloride]",IC50,2920 nM
"CC(=O)OCC(=O)N1CCC(c2nnc3ccc(Sc4ccc(F)cc4F)cn23)CC1 [44 (step 4), 2-(4-{6-[(2,4-difluorophenyl)thio][1,2,4]triazolo[4,3-a]pyridin-3-yl}piperidin-1-yl)-2-oxoethyl acetate hydrochloride]",IC50,367 nM
"Cc1cc(Br)ccc1-c1nnc2ccc(Sc3ccc(F)cc3F)cn12 [45 (step 2), 3 (4-bromo-2-methylphenyl)-6-[(2,4-difluorophenyl)thio][1,2,4]triazolo[4,3-a]pyridine hydrochloride]",IC50,141 nM
"C=Cc1ccc(-c2nnc3ccc(Sc4ccc(F)cc4F)cn23)c(C)c1 [45 (step 3), 6-[(2,4-difluorophenyl)thio]-3-(2-methyl-4-vinylphenyl)[1,2,4]triazolo[4,3-a]pyridine hydrochloride]",IC50,106 nM
"Cc1cc(C(O)CO)ccc1-c1nnc2ccc(Sc3ccc(F)cc3F)cn12 (centres unmarked) [45 (step 4), 1-(4-{6-[(2,4-difluorophenyl)thio][1,2,4]triazolo[4,3-a]pyridin-3-yl}-3-methylphenyl)ethane-1,2-diol hydrochloride]",IC50,28.3 nM
"C=Cc1ccc(-c2nnc3ccc(Cc4ccc(F)cc4F)cn23)cc1 [62 (step 2), 6-(2,4-difluorobenzyl)-3-(4-vinylphenyl)[1,2,4]triazolo[4,3-a]pyridine]",IC50,2290 nM
"CC(C)c1nnc2ccc(/C=C\c3ccc(F)cc3F)cn12 [Example 1, 6-[(Z)-2-(2,4-difluorophenyl)vinyl]-3-isopropyl[1,2,4]triazolo[4,3-a]pyridine]",IC50,535 nM
"CC(C)c1nnc2ccc(CCc3ccc(F)cc3F)cn12 [Example 2, 6-[2-(2,4-difluorophenyl)ethyl]-3-isopropyl[1,2,4]triazolo[4,3-a]pyridine]",IC50,85 nM
"CC(=O)c1ccc2nnc(C(C)C)n2c1 [Example 4, 1-(3-isopropyl[1,2,4]triazolo[4,3-a]pyridin-6-yl)ethanone]",IC50,> 100000 nM
"CC(C)c1nnc2ccc(C(=O)Cc3ccc(F)cc3F)cn12 [Example 5, 2-(2,4-difluorophenyl)-1-(3-isopropyl[1,2,4]triazolo[4,3-a]pyridin-6-yl)ethanone]",IC50,7370 nM
"CC(C)c1nnc2ccc(COCc3ccc(F)cc3F)cn12 [Example 6, 6-{[(2,4-difluorobenzyl)oxy]methyl}-3-isopropyl[1,2,4]triazolo[4,3-a]pyridine]",IC50,> 100000 nM
"CC(C)c1nnc2ccc(-c3cnn(Cc4ccccc4)c3)cn12 [Example 7, 6-(1-benzyl-1H-pyrazol-4-yl)-3-isopropyl[1,2,4]triazolo[4,3-a]pyridine]",IC50,> 100000 nM
"CC(C)c1nnc2n1CC(Cc1ccc(F)cc1F)CC2 (centres unmarked) [Example 8, 6-(2,4-difluorobenzyl)-3-isopropyl-5,6,7,8-tetrahydro[1,2,4]triazolo[4,3-a]pyridine hydrochloride]",IC50,5590 nM
"CC(C)c1nnc2ccc(Cc3ccc(Cl)nc3)cn12 [Example 9, 6-[(6-chloropyridin-3-yl)methyl]-3-isopropyl[1,2,4]triazolo[4,3-a]pyridine]",IC50,53300 nM
"CC(C)(C)c1nnc2ccc(Cc3ccc(Cl)nc3)cn12 [Example 10, 3-tert-butyl-6-[(6-chloropyridin-3-yl)methyl][1,2,4]triazolo[4,3-a]pyridine]",IC50,21600 nM
"CC(C)c1nnc2ccc(C(=O)Nc3ccc(F)cc3F)cn12 [Example 11, N-(2,4-difluorophenyl)-3-isopropyl[1,2,4]triazolo[4,3-a]pyridine-6-carboxamide]",IC50,> 100000 nM
"CC(C)(C)c1nnc2ccc(OCc3ccc(F)cc3F)cn12 [Example 12, 3-tert-butyl-6-[(2,4-difluorobenzyl)oxy][1,2,4]triazolo[4,3-a]pyridine]",IC50,19500 nM
"CC(C)(C)c1nnc2ccc(O)c(Cc3ccc(F)cc3F)n12 [Example 13, 3-tert-butyl-5-(2,4-difluorobenzyl)[1,2,4]triazolo[4,3-a]pyridin-6-ol]",IC50,> 100000 nM
"CC(C)(C)c1nnc2n1CC(c1ocnc1-c1cc(F)c(F)cc1F)CC2 (centres unmarked) [Example 14, 3-tert-butyl-6-[4-(2,4,5-trifluorophenyl)-1,3-oxazol-5-yl]-5,6,7,8-tetrahydro[1,2,4]triazolo[4,3-a]pyridine]",IC50,786 nM
"CC(C)(C)c1nnc2ccc(C(=O)c3ccc(F)cc3F)cn12 [Example 15, (3-tert-butyl[1,2,4]triazolo[4,3-a]pyridin-6-yl)(2,4-difluorophenyl)methanone]",IC50,1050 nM

# From US20090209577A1, “Novel Triazolopyridine Compounds” (PFIZER INC., priority 2004, published 2009)
